Test results published in publication PMC6923382, “Small molecules that inhibit TNF signalling by stabilising an asymmetric form of the trimer” (Nature Communications, 2019).
Entries after “also recorded” stand apart in the source; their conditions may differ.

Legend:
[1] = tested on: TNFR1 extracellular domain and control proteins; assay: Biacore SPR binding to control surfaces; details: capture antibody plus TNFR1, capture antibody
Text: (§1) BIA (Biomolecular Interaction Analysis) uses SPR to measure the binding of compounds to a protein immobilised on a chip surface. For this purpose a Biacore A100/4000 (GE Healthcare) was used. A CM5 sensor was immobilised via amine coupling on flow cell 1 with human Fc antibody domain (10k response units; kRU) and TNFR-Fc captured (2.5 kRU), flow cell 2 TNF (11 kRU), flow cell 3 was left blank (for non-specific binding), flow cell 4 TNFR-Fc (10 kRU), and flow cell 5 goat anti-human Fc 16 kRU). The sensor surface was then equilibrated in HBS-P (10 mM HEPES pH 7.4, 0.15 M NaCl, 0.005% Surfactant P20, BIAcore, GE Healthcare) with 5% DMSO for at least 5 h. Compounds were diluted from 100 mM stocks into DMSO matched buffer and then flowed over the immobilised flow cells at a concentration of 250 µM at the maximum flow rate of 30 μL/min. Background subtraction binding curves were analysed using the Biacore A100 BIA evaluation software version 1.1 following standard procedures.

[2] = target: T1, TNF (Homo sapiens, UniProt P01375); assay: Mass spectrometry monomer exchange; assay type: biochemical; parameters: stabilise an asymmetrical form of the soluble TNF trimer; details: human TNF pre-incubated with compound, mixed 1:1 with mouse TNF
Protocol: Mouse and human TNF protein were made up to a concentration of 2 mg/mL (20 mM ammonium acetate, pH 7.4) and desalted and buffer-exchanged using Zeba columns. The protein was then diluted to 20 μM in ammonium acetate buffer. An aliquot of each was mixed 1:1 and analysed at various time points. Human TNF was incubated (1:1, v/v) with compound (20 μΜ), 4% DMSO in 20 mM ammonium acetate) and mixed with mouse TNF (1:1) and tested at various time points using an Advion Nanomate (for sample introduction by nanospray) and ThermoFisher Exactive Plus EMR Mass Spectrometer. The following settings were utilised on the mass spectrometer: scan range 1000 to 8000 m/z; spray voltage 1.5 kV; capillary temperature 150 °C; S-lens RF 200; source DC offset 25 V, injection flatapole 7 V; inter flatapole 6 V; bent flatapole DC 6 V; EMR mode on. Data were processed using ThermoFisher Protein Deconvolution 3.0.
Target sequence in this assay (P01375 77-233 limits assumed): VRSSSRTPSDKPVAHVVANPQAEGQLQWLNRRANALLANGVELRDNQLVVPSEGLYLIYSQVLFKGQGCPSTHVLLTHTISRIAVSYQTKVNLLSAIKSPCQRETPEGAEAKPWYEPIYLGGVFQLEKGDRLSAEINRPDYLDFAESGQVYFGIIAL

[3] = target: T1, TNF; assay: Biacore kinetics of binding; parameters: Human TNF (CID2043, UniProt P01375 residues 77–233); 6XHis-Smt3 (N, cleaved yes); host or cells: E. coli TOP10; details: SPR, multicycle, Biacore T100
Protocol: Surface plasmon resonance using a Biacore T100/T200 was used to measure the association rate constant (ka), the dissociation rate constant (kd) and the affinity (KD) of compounds. TNF (VCID 2043 Beryllium) was immobilised to approximately 5 kRU as described above and equilibrated for at least 5 h in HBS P + buffer with 5% DMSO. UCB-6876 was serially diluted from 187.5 µM, flowing over the immobilised TNF at 50 µL/min for 3 min before allowing full dissociation under flow for at least 6 min. […] […] The compounds were allowed to dissociate for 2 h under flow.
Target sequence in this assay (P01375 77-233): as the sequence (P01375 77-233 limits assumed) above

[4] = target: T1, TNF; assay: Biacore SPR fragment binding to immobilised TNF; parameters: Human TNF (CID2043, UniProt P01375 residues 77–233); 6XHis-Smt3 (N, cleaved yes); host or cells: E. coli TOP10; details: SPR fragment screen; concentration-dependent response
Text: as §1
Target sequence in this assay (P01375 77-233): as the sequence (P01375 77-233 limits assumed) above

[5] = target: T1, TNF; assay: Biacore binding with and without non-ionic detergent; parameters: stabilise an asymmetrical form of the soluble TNF trimer; details: 0.01% v/v Triton X-100 and 0.025% v/v Tween-80; Biacore T200
Protocol: Experiments to show any effect of addition of non-ionic detergent were performed on a Biacore, with human TNF on the solid phase and compounds in solution phase in the presence and absence of 0.01% v/v Triton X-100 and 0.025% v/v Tween-80.
Three Biacore T200s were treated with sodium hypochlorite to remove any traces of detergent. Each machine was equilibrated in either HBS with no detergent (control), HBS:
Tween-P80 (0.025% v/v) or HBS: Triton X-100 (0.01% v/v). Human TNF was tethered to ~ 2000 RU before equilibration in the equivalent control or detergent buffers plus 1% DMSO. […]
were fitted to a BIAevaluation T200 1:1 algorithm and the fitted data shown. […]
Target sequence in this assay (P01375 77-233 limits assumed): as above

## Cc1ccc(C)c(Cn2c(CO)nc3ccccc32)c1 [UCB-6876]
[1]
  binding to TNFR1 and control proteins (selectivity): selectivity over the TNFR1 extracellular domain and control proteins; also recorded: not to control proteins
[2]
  exchange of mouse and human TNF monomers: blocks the exchange of mouse and human monomers
[3]; read-out: KD (kd/ka)
  Kd: 22 µM
[3]; read-out: association rate constant ka
  kon: 923 M⁻¹ s⁻¹
[3]; read-out: dissociation rate constant kd
  koff: 0.02 s⁻¹
[4]
  binding to immobilised TNF: bound to TNF; also recorded: specifically binds to immobilised TNF
[5]
  effect of non-ionic detergents on binding to human TNF: does not alter the binding
